Values of other authors, collected in patent publication US20090069345A1, “Pharmaceutically Stable Compound Consisting of Timolol, Dorzolamide and Brimonidine” (priority 2007, published 2009).

Columns and labels:
[1] = intravenous injection, first 3 hours
eye of a rabbit = conditions: concentrations above those normally used in formulations

OC[C@@H](O)[C@@H](O)[C@H](O)[C@H](O)CO [Mannitol]
dose excreted in urine [1]: about 80%

Benzalkonium chloride
toxicity to the eye (eye of a rabbit): damaging
